Measured values: patent publication US5596002A, “Method of treating chloroquine-resistant malaria with aminoquinoline derivatives” (Hoffmann-La Roche Inc., priority 1993, dated 1997)
Values after ≈ are worked out from the molar mass of the structure shown.

Key:
Assay type in all cases: cell-based
[1] = system: Plasmodium falciparum, chloroquine-sensitive strain NF54; test: activity against P. falciparum in vitro, strain NF54; conditions: Plasmodium falciparum; chloroquine-sensitive strain NF54; 48 h-72 h; read-out: IC50 (50% growth inhibition)
Protocol: (§1) Test method for the determination of the activity against P. falciparum in vitro
(§2) The preparations of the present invention were tested on intraerythrocytary stages of P. falciparum from asynchronous cultures according to the method of Desjardin et al. (Desjardins, R. E. et al: Quantitative assessment of antimalarial activity in vitro by a semiautomated microdilution technique. Antimicrob. Agents Chemother. 16, 710-718, (1979)).
(§3) The culture medium consisted of RPMI 1640 with the addition of 25 mM HEPES, 25 mM NaHCO3, […] neomycin and 10% human serum (A^+). Human-A^+ erythrocytes were used as the P. falciparum host cells. The parasites were maintained at 37° C. in an atmosphere of 3% O2, 4% CO2, 93% N2 and at 95% relative humidity.
(§4) In order to determine the activity, the preparations were dissolved in DMSO, pre-diluted in the culture medium to a suitable starting concentration and subsequently titrated-out into microtitre plates in the 2nd stage over 6-7 steps. After the addition of the parasite culture (0.7% parasitemia in 2.5% erythrocyte suspension), the test plates were incubated under the conditions given above for 48 h-72 h. The parasite growth in the different preparation concentrations was determined using [G-^3 H]-hypoxanthin incorporation compared to untreated control cultures on the same test plates. The 50% growth inhibition (IC50) was calculated according to logit regression analysis from the resulting dosage-activity curve.
(§5) The preparations were tested on at least one chloroquine-resistant and one chloroquine-sensitive P. falciparum strain. Additional sensitive and resistant strains were also included for further characterization.
(§6) Table 1 below contains the IC50 values measured in vitro for the growth inhibition of chloroquine-sensitive and chloroquine-resistant strains of the human pathogenic Plasmodium falciparum.

[2] = system: Plasmodium falciparum, chloroquine-resistant strain 7G8; test: activity against P. falciparum in vitro, strain 7G8; conditions: chloroquine-resistant strain 7G8, 48 h-72 h, read-out: IC50 (50% growth inhibition)
Protocol: as §1, §2, §3, §4, §5, §6

[3] = system: Plasmodium falciparum, chloroquine-sensitive strain RFMEF3; test: activity against P. falciparum in vitro, strain RFMEF3; conditions: chloroquine-sensitive strain RFMEF3, 48 h-72 h, read-out: IC50 (50% growth inhibition)
Protocol: as §1, §2, §3, §4, §5, §6

[4] = system: Plasmodium falciparum, chloroquine-resistant strain W2; test: activity against P. falciparum in vitro, strain W2; conditions: chloroquine-resistant strain W2, 48 h-72 h, read-out: IC50 (50% growth inhibition)
Protocol: as §1, §2, §3, §4, §5, §6

[5] = system: Plasmodium falciparum, chloroquine-resistant strain ItG2 F6; test: activity against P. falciparum in vitro, strain ItG2 F6; conditions: chloroquine-resistant strain ItG2 F6, 48 h-72 h, read-out: IC50 (50% growth inhibition)
Protocol: as §1, §2, §3, §4, §5, §6

[6] = system: Plasmodium falciparum, chloroquine-sensitive strain FCH5C2; test: activity against P. falciparum in vitro, strain FCH5C2; conditions: chloroquine-sensitive strain FCH5C2, 48 h-72 h, read-out: IC50 (50% growth inhibition)
Protocol: as §1, §2, §3, §4, §5, §6

[7] = system: Plasmodium falciparum, chloroquine-resistant strain W2 Mef; test: activity against P. falciparum in vitro, strain W2 Mef; conditions: 48 h-72 h, read-out: IC50 (50% growth inhibition)
Protocol: as §1, §2, §3, §4, §5, §6

[8] = system: Plasmodium falciparum, chloroquine-resistant strain K1; test: activity against P. falciparum in vitro, strain K1; conditions: Plasmodium falciparum; chloroquine-resistant strain K1; 48 h-72 h; read-out: IC50 (50% growth inhibition)
Protocol: as §1, §2, §3, §4, §5, §6

[9] = system: Plasmodium falciparum, chloroquine-resistant strain RFCR3; test: activity against P. falciparum in vitro, strain RFCR3; conditions: chloroquine-resistant strain RFCR3, 48 h-72 h, read-out: IC50 (50% growth inhibition)
Protocol: as §1, §2, §3, §4, §5, §6

[10] = system: Plasmodium falciparum, chloroquine-resistant strain Indo; test: activity against P. falciparum in vitro, strain Indo; conditions: chloroquine-resistant strain Indo, 48 h-72 h, read-out: IC50 (50% growth inhibition)
Protocol: as §1, §2, §3, §4, §5, §6

[11] = system: Plasmodium falciparum, chloroquine-sensitive strain HB3; test: activity against P. falciparum in vitro, strain HB3; conditions: chloroquine-sensitive strain HB3, 48 h-72 h, read-out: IC50 (50% growth inhibition)
Protocol: as §1, §2, §3, §4, §5, §6

[12] = system: Plasmodium falciparum, chloroquine-sensitive strain Ro7 3; test: activity against P. falciparum in vitro, strain Ro7 3; conditions: chloroquine-sensitive strain Ro7 3, 48 h-72 h, read-out: IC50 (50% growth inhibition)
Protocol: as §1, §2, §3, §4, §5, §6

CC(C)(CN1CCCC1)Nc1ccnc2cc(Cl)ccc12 [Example 13, (7-Chloro-quinolin-4-yl)-(1,1-dimethyl-2-pyrrolidin-1-yl-ethyl)-amine]
IC50 [1]: 0.03 µg/mL (≈ 0.0987 µM) | IC50 [2]: 0.039 µg/mL (≈ 0.128 µM) | IC50 [3]: 0.027 µg/mL (≈ 0.0889 µM) | IC50 [4]: 0.034 µg/mL (≈ 0.112 µM) | IC50 [5]: 0.025 µg/mL (≈ 0.0823 µM) | IC50 [6]: 0.028 µg/mL (≈ 0.0922 µM) | IC50 [7]: 0.041 µg/mL (≈ 0.135 µM) | IC50 [8]: 0.047 µg/mL (≈ 0.155 µM) | IC50 [9]: 0.058 µg/mL (≈ 0.191 µM) | IC50 [10]: 0.04 µg/mL (≈ 0.132 µM) | IC50 [11]: 0.038 µg/mL (≈ 0.125 µM) | IC50 [12]: 0.03 µg/mL (≈ 0.0987 µM)

CC(C)(CN1CCCCC1)Nc1ccnc2cc(Cl)ccc12 [Example 14, (7-Chloro-quinolin-4-yl)-(1,1-dimethyl-2-piperidin-1-yl-ethyl)-amine]
IC50 [1]: 0.009 µg/mL (≈ 0.0283 µM) | IC50 [2]: 0.007 µg/mL (≈ 0.022 µM) | IC50 [3]: 0.006 µg/mL (≈ 0.0189 µM) | IC50 [4]: 0.02 µg/mL (≈ 0.0629 µM) | IC50 [5]: 0.006 µg/mL (≈ 0.0189 µM) | IC50 [6]: 0.008 µg/mL (≈ 0.0252 µM) | IC50 [7]: 0.014 µg/mL (≈ 0.044 µM) | IC50 [8]: 0.021 µg/mL (≈ 0.0661 µM) | IC50 [9]: 0.008 µg/mL (≈ 0.0252 µM) | IC50 [10]: 0.01 µg/mL (≈ 0.0315 µM) | IC50 [11]: 0.009 µg/mL (≈ 0.0283 µM) | IC50 [12]: 0.004 µg/mL (≈ 0.0126 µM)

CN(C)CCNc1ccnc2cc(C(F)(F)F)ccc12 [Example 22, N1,N1 -Dimethyl-N2-(7trifluoromethyl-quinolin-4-yl)-ethane-1,2-diamine]
IC50 [1]: 0.014 µg/mL (≈ 0.0494 µM) | IC50 [2]: 0.029 µg/mL (≈ 0.102 µM) | IC50 [3]: 0.018 µg/mL (≈ 0.0635 µM) | IC50 [4]: 0.011 µg/mL (≈ 0.0388 µM) | IC50 [5]: 0.014 µg/mL (≈ 0.0494 µM) | IC50 [6]: 0.017 µg/mL (≈ 0.06 µM) | IC50 [7]: 0.023 µg/mL (≈ 0.0812 µM) | IC50 [8]: 0.022 µg/mL (≈ 0.0777 µM) | IC50 [9]: 0.02 µg/mL (≈ 0.0706 µM) | IC50 [10]: 0.016 µg/mL (≈ 0.0565 µM) | IC50 [11]: 0.02 µg/mL (≈ 0.0706 µM) | IC50 [12]: 0.011 µg/mL (≈ 0.0388 µM)

CC1CCN(CCNc2ccnc3cc(Cl)ccc23)CC1 [Example 24, (7-Chloro-quinolin-4-yl)-[2-(4-methyl-piperidin-1-yl)-ethyl]-amine]
IC50 [1]: 0.007 µg/mL (≈ 0.023 µM) | IC50 [2]: 0.007 µg/mL (≈ 0.023 µM) | IC50 [3]: 0.007 µg/mL (≈ 0.023 µM) | IC50 [4]: 0.015 µg/mL (≈ 0.0494 µM) | IC50 [5]: 0.006 µg/mL (≈ 0.0197 µM) | IC50 [6]: 0.007 µg/mL (≈ 0.023 µM) | IC50 [7]: 0.009 µg/mL (≈ 0.0296 µM) | IC50 [8]: 0.015 µg/mL (≈ 0.0494 µM) | IC50 [9]: 0.009 µg/mL (≈ 0.0296 µM) | IC50 [10]: 0.008 µg/mL (≈ 0.0263 µM) | IC50 [11]: 0.007 µg/mL (≈ 0.023 µM) | IC50 [12]: 0.004 µg/mL (≈ 0.0132 µM)

CC1(C)CCCN(CCNc2ccnc3cc(Cl)ccc23)C1 [Example 25, (7-Chloro-quinolin-4-yl)-[2-(3,3-dimethyl-piperidin-1-yl)-ethyl]-amine]
IC50 [1]: 0.008 µg/mL (≈ 0.0252 µM) | IC50 [2]: 0.011 µg/mL (≈ 0.0346 µM) | IC50 [3]: 0.008 µg/mL (≈ 0.0252 µM) | IC50 [4]: 0.026 µg/mL (≈ 0.0818 µM) | IC50 [5]: 0.008 µg/mL (≈ 0.0252 µM) | IC50 [6]: 0.008 µg/mL (≈ 0.0252 µM) | IC50 [7]: 0.016 µg/mL (≈ 0.0503 µM) | IC50 [8]: 0.022 µg/mL (≈ 0.0692 µM) | IC50 [9]: 0.014 µg/mL (≈ 0.044 µM) | IC50 [10]: 0.015 µg/mL (≈ 0.0472 µM) | IC50 [11]: 0.01 µg/mL (≈ 0.0315 µM) | IC50 [12]: 0.005 µg/mL (≈ 0.0157 µM)

C[C@@H]1CCC[C@H](C)N1CCNc1ccnc2cc(Cl)ccc12 [Example 28, (2R,6S)-(7-Chloro-quinolin-4-yl)-[2-(2,6-dimethyl-piperidin-1-yl)-ethyl]-amine]
IC50 [1]: 0.007 µg/mL (≈ 0.022 µM) | IC50 [2]: 0.009 µg/mL (≈ 0.0283 µM) | IC50 [3]: 0.009 µg/mL (≈ 0.0283 µM) | IC50 [4]: 0.018 µg/mL (≈ 0.0566 µM) | IC50 [5]: 0.006 µg/mL (≈ 0.0189 µM) | IC50 [6]: 0.014 µg/mL (≈ 0.044 µM) | IC50 [7]: 0.015 µg/mL (≈ 0.0472 µM) | IC50 [8]: 0.016 µg/mL (≈ 0.0503 µM) | IC50 [9]: 0.016 µg/mL (≈ 0.0503 µM) | IC50 [10]: 0.009 µg/mL (≈ 0.0283 µM) | IC50 [11]: 0.011 µg/mL (≈ 0.0346 µM) | IC50 [12]: 0.005 µg/mL (≈ 0.0157 µM)

CC1CC(C)CN(CCNc2ccnc3cc(Cl)ccc23)C1 (stereo not drawn) [Example 29, (7-Chloro-quinolin-4-yl)-[2-(3,5-dimethyl-piperidin-1-yl)-ethyl]-amine]
IC50 [1]: 0.006 µg/mL (≈ 0.0189 µM) | IC50 [2]: 0.005 µg/mL (≈ 0.0157 µM) | IC50 [3]: 0.005 µg/mL (≈ 0.0157 µM) | IC50 [4]: 0.015 µg/mL (≈ 0.0472 µM) | IC50 [5]: 0.006 µg/mL (≈ 0.0189 µM) | IC50 [6]: 0.006 µg/mL (≈ 0.0189 µM) | IC50 [7]: 0.011 µg/mL (≈ 0.0346 µM) | IC50 [8]: 0.016 µg/mL (≈ 0.0503 µM) | IC50 [9]: 0.011 µg/mL (≈ 0.0346 µM) | IC50 [10]: 0.007 µg/mL (≈ 0.022 µM) | IC50 [11]: 0.007 µg/mL (≈ 0.022 µM) | IC50 [12]: 0.003 µg/mL (≈ 0.00944 µM)

CC1CCC(C)N1CCNc1ccnc2cc(Cl)ccc12 (stereo not drawn) [Example 30, (7-Chloro-quinolin-4-yl)-[2-(2,5-dimethyl-pyrrolidin-1-yl)-ethyl]-amine]
IC50 [1]: 0.007 µg/mL (≈ 0.023 µM) | IC50 [2]: 0.015 µg/mL (≈ 0.0494 µM) | IC50 [3]: 0.008 µg/mL (≈ 0.0263 µM) | IC50 [4]: 0.015 µg/mL (≈ 0.0494 µM) | IC50 [5]: 0.007 µg/mL (≈ 0.023 µM) | IC50 [6]: 0.009 µg/mL (≈ 0.0296 µM) | IC50 [7]: 0.008 µg/mL (≈ 0.0263 µM) | IC50 [8]: 0.014 µg/mL (≈ 0.0461 µM) | IC50 [9]: 0.016 µg/mL (≈ 0.0527 µM) | IC50 [10]: 0.007 µg/mL (≈ 0.023 µM) | IC50 [11]: 0.01 µg/mL (≈ 0.0329 µM) | IC50 [12]: 0.011 µg/mL (≈ 0.0362 µM)
